Assay: xn = mol fraction of the nth substance listed
Settings: 100 kPa, Liquid

CCNCC [diethylamine] + O
mass density [kg/m3]
Settings	278.15 K	288.15 K	293.15 K	298.15 K	308.15 K
x1 = 0.0006	999.491	998.664	997.751	996.626	993.562
x1 = 0.0024	997.912	997.039	996.154	994.988	991.942
x1 = 0.0035	996.932	996.037	995.136	993.969	990.903
x1 = 0.0044	996.139	995.23	994.323	993.151	990.065
x1 = 0.0056	995.225	994.285	993.371	992.182	989.066
x1 = 0.0064	994.57	993.602	992.679	991.472	988.353
x1 = 0.0081	993.249	992.212	991.279	990.04	986.873
x1 = 0.0097	992.04	990.934	989.98	988.714	985.476
x1 = 0.0172	987.17	985.63	984.539	983.09	979.496
x1 = 0.0291	980.983	978.376	976.96	975.088	970.666
x1 = 0.04	976.381	972.612	970.596	968.411	962.812
x1 = 0.0799	957.078	949.316	945.543	941.882	936.416
x1 = 0.0962	–	939.288	–	932.747	927.169
x1 = 0.1023	–	935.289	–	928.614	923.171
x1 = 0.1157	–	927.131	–	918.262	–
x1 = 0.1191	933.215	925.183	920.953	916.971	910.193
x1 = 0.1717	905.317	896.85	892.377	888.178	883.177
x1 = 0.229	–	871.09	–	–	–
x1 = 0.2382	876.611	867.217	863.096	858.163	848.844
x1 = 0.2939	859.045	–	842.233	837.568	827.974
x1 = 0.3003	857.537	844.712	839.967	835.41	825.737
x1 = 0.3501	–	829.202	824.477	819.781	810.104
x1 = 0.3558	838.534	–	822.73	817.933	808.149
x1 = 0.3911	–	–	–	809.086	–
x1 = 0.4057	–	814.027	809.021	–	794.354
x1 = 0.4407	815.342	–	–	795.926	–
x1 = 0.4625	810.256	799.75	795.056	789.779	779.967
x1 = 0.4844	805.352	–	–	784.888	–
x1 = 0.5091	799.695	–	–	–	769.213
x1 = 0.523	–	–	781.055	–	766.718
x1 = 0.5287	–	–	–	775.014	–
x1 = 0.6144	779.133	768.288	763.538	759.804	748.753
x1 = 0.6304	775.979	–	760.21	–	745.249
x1 = 0.7017	763.313	–	747.769	742.589	732.049
x1 = 0.7022	–	752.772	–	742.461	732.247
x1 = 0.726	–	–	742.965	–	–
x1 = 0.7549	–	–	738.917	733.676	723.048
x1 = 0.7771	751.837	–	735.541	730.331	719.687
x1 = 0.805	749.039	737.02	731.853	726.558	–
x1 = 0.8523	741.596	729.358	724.287	718.777	708.199
x1 = 0.8755	735.261	–	–	715.631	–
x1 = 0.8822	–	725.559	719.965	714.728	–
x1 = 0.8941	–	–	718.394	713.135	702.403
x1 = 0.9019	732.413	–	–	712.05	–
x1 = 0.931	–	718.71	713.312	708.033	–
x1 = 0.941	726.848	–	712.088	706.818	696.061
x1 = 0.9589	724.66	–	–	704.314	–
x1 = 0.9727	–	–	708.394	703.131	692.387
x1 = 0.979	721.447	–	–	701.729	–
x1 = 1	719.94	709.52	704.59	698.97	688.29

— the NIST ThermoML archive (doi:10.1016/j.jct.2004.07.008)
